{"source": "patent US20170298055A1", "about": "“sGC STIMULATORS” (IRONWOOD PHARMACEUTICALS, INC., priority 2014, published 2017)", "key": {"[1]": {"biological_target": "T1, human recombinant soluble guanylate cyclase enzyme α1β1 (Homo sapiens, UniProt Q02108+Q02153)", "T1 construct": "purchased Enzo Life Sciences ALX-201-177", "T1 sequence (Q02153 1-619)": "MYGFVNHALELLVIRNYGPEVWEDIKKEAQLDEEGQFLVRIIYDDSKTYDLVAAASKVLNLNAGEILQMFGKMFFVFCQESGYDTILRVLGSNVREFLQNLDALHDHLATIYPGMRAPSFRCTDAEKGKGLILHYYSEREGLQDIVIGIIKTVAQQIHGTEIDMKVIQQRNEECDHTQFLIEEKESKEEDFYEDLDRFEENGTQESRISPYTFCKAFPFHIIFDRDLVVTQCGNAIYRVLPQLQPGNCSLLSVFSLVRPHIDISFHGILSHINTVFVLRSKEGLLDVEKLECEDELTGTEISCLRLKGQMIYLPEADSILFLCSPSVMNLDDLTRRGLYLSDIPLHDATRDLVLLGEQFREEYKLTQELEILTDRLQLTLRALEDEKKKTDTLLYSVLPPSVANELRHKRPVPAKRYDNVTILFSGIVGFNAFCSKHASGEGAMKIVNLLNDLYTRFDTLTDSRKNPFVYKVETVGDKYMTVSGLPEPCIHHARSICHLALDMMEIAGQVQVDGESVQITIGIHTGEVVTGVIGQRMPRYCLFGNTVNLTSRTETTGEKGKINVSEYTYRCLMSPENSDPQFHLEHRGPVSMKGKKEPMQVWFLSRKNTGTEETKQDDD", "T1 sequence (Q02108 1-690)": "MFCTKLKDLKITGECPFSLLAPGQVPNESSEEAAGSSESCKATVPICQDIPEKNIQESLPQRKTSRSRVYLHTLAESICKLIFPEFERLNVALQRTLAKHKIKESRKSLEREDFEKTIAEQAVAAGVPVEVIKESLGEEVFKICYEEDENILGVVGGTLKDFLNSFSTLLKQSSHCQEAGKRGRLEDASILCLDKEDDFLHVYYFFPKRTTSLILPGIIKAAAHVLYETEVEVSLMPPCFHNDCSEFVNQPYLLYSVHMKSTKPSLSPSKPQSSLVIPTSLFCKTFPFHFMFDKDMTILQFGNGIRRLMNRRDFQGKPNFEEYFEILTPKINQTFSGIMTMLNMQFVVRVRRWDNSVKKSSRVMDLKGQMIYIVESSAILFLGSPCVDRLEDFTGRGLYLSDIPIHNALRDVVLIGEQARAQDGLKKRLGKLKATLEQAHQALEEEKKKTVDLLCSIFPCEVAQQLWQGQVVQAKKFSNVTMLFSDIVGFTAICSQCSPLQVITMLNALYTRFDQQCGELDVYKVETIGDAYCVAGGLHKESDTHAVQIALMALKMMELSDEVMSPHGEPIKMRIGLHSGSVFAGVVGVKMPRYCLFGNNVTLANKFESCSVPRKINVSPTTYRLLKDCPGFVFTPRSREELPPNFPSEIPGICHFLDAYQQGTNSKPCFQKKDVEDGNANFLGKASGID", "experiment": "Purified human recombinant sGC α1β1 enzyme assay with DETA-NONOate, cGMP HTRF (Example 5)", "assay_type": "biochemical", "conditions": "30 uM DETA NONOate, 50% of maximal response of 30 uM Compound Y, read-out: sGC_Enz_HTRF_a1b1 EC50/IC50 Abs (Norm) (nM) Binned", "procedure": "Purified human recombinant soluble guanylate cyclase enzyme α1β1 (h sGC) obtained from Enzo Life Sciences (P/N: ALX-201-177) was used to evaluate the activity of test compounds. The assay reactions contained 0.1 M Tris (pH 8.0), 0.5 mg/mL BSA, 2 mM DTT, 4 mM MgCl2, 30 uM DETA NONOate (Enzo Life Science P/N: ALX-430-014), and 12.5 ng/ml human soluble guanylate cyclase enzyme. […] Guanosine 5′-triphosphate (Sigma-Aldrich P/N: G8877) was added to a final concentration of 300 μM and enzyme reactions were incubated (100 μL, 384-well plate format) at 37° C. for 20 minutes. The controls contained 3% DMSO (low control), or 30 uM of Compound Y (high control). After the 20 minute incubation, the reaction was stopped with the addition of 100 μL of ice cold 20% acetic acid.\ncGMP concentrations in all samples were determined using the cGMP HTRF (Cisbio P/N: 62GM2PEC) assay per manufacturer's instructions. A cGMP standard curve was fit using a 4-parameter fit (log(inhibitor) vs. response variable slope) using GraphPad Prism Software v.6. Samples were diluted appropriately to ensure that values fell within the linear range of the standard curve.\nData were fit using a 4-parameter fit (log(agonist) vs. response variable slope) using GraphPad Prism Software v.6."}, "[2]": {"biological_target": "T2, soluble guanylate cyclase (sGC) (Homo sapiens, UniProt Q02108+Q02153)", "T2 construct": "endogenously expressing soluble guanylate cyclase (sGC); endogenous in cells; host or cells: HEK293", "T2 sequence (Q02153 1-619)": "T1 sequence (Q02153 1-619)", "T2 sequence (Q02108 1-690)": "T1 sequence (Q02108 1-690)", "experiment": "sGC-HEK-cGMP assay, LC/MS detection, with SNP incubation (Example 2A)", "assay_type": "cell-based", "conditions": "HEK293 cells, in the presence of 10 μM SNP; top of concentration-response curve not fitted to 100%; read-out: sGC_HEK_LCMS uEC50 (nM) Binned (unconstrained)", "procedure": "Human embryonic kidney cells (HEK293), endogenously expressing soluble guanylate cyclase (sGC), were used to evaluate the activity of test compounds. Compounds stimulating the sGC receptor should cause an increase in the intracellular concentration of cGMP. HEK 293 cells were seeded in Dulbecco's Modification of Eagle's Medium supplemented with fetal bovine serum (10% final) and L-glutamine (2 mM final) in a 200 μL volume at a density of 1×10^5 cells/well in a poly-D-lysine coated 96 well flat bottom plate and grown overnight at 37° C. Medium was aspirated and cells were washed with 1× Hank's Buffered Saline Salt Solution (200 μL). Cells were then incubated for 15 minutes at 37° C. with 0.5 mM 3-isobutyl-1-methylxanthine (200 μL). Test article and sodium nitroprusside were then added to the assay mixture (2 μL each) and incubated at 37° C. for 10 minutes. After the 10 minute incubation, the assay mixture was aspirated and 0.1M HCl (200 μL) was added to the cells. The plate was incubated at 4° C. for 30 minutes in the 0.1M HCl to stop the reaction and lysed the cells. The plates were then centrifuged at 1,200 g for 5 minutes at room temperature. Supernatants were collected and transferred to a new flat bottom 96 well plate for analysis. Vehicle controls were carried out using DMSO (1%). A known sGC stimulator, BAY 41-2272, was used as the positive control. Samples were diluted with an equal volume of 1 M Ammonium Acetate (pH 7) to neutralize samples for better chromatography. A 2× cGMP standard curve was prepared in 0.1 M HCl and then diluted with an equal volume of 1 M Ammonium Acetate, with the following final concentrations in nM: 1024, 512, 256, 128, 64, 32, 16, 8, 4, 2, 1. cGMP concentrations were determined from each sample using the LC/MS conditions (Table 2 below) and calculated standard curve. EC50 values were calculated from concentration-response curves generated with GraphPad Prism Software."}}}
{"smiles": "OCCOc1nc(-c2cc(-c3ccon3)n(Cc3ccccc3F)n2)ncc1F", "note": "[Compound I-1]", "values": [{"measurement": "EC50", "setting": "[1]", "value": "1000 to 5000", "unit": "nM"}, {"measurement": "EC50", "setting": "[2]", "value": "100 to 1000", "unit": "nM"}]}
{"smiles": "CN(C)CCOc1nc(-c2cc(-c3ccon3)n(Cc3ccccc3F)n2)ncc1F", "note": "[Compound I-2]", "values": [{"measurement": "EC50", "setting": "[1]", "value": "1000 to 5000", "unit": "nM"}, {"measurement": "EC50", "setting": "[2]", "value": "100 to 1000", "unit": "nM"}]}
